Experimental data: PubChem BioAssay (NCI)
Values joined by “and” are separate entries in the source; they are usually repeats but may differ in a detail not shown here. Identical values can stand only once.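 Interpolation was linear, between the two tested concentrations surrounding the appropriate level; five concentrations were tested over 48 hours in 96-well plates. GI50 is the concentration that inhibits growth by half. At the TGI there is no net growth.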 Where a SMILES comes first, the peptide text is derived from it. [ ]: non-standard residue; d: D form. The star is where a group is joined. ξ: configuration not given here. NMeN = CN[C@@H](CC(N)=O)C(=O)O; NMeV = CN[C@H](C(=O)O)C(C)C; ξNMeV = CNC(C(=O)O)C(C)C; Boc = CC(C)(C)OC(=O)*; ξNMeA = CNC(C)C(=O)O

Experiments:
Assay in all cases: DTP human tumour cell line panel, 48 h
[1] = test system: HT29 colon
[2] = test system: KM12 colon
[3] = test system: K-562 leukemia
[4] = test system: SK-MEL-2 melanoma
[5] = test system: IGROV1 ovarian
[6] = test system: RXF 393 renal
[7] = test system: EKVX NSCLC
[8] = test system: CCRF-CEM leukemia
[9] = test system: UACC-62 melanoma
[10] = test system: A549 NSCLC

Compound | GI50 [1] | TGI [1] | GI50 [2] | TGI [2] | GI50 [3] | TGI [3] | GI50 [4] | TGI [4] | GI50 [5] | TGI [5] | GI50 [6] | TGI [6] | GI50 [7] | TGI [7] | GI50 [8] | TGI [8] | GI50 [9] | TGI [9] | GI50 [10] | TGI [10]
C=C1C(=O)[C@@]23CC1C(O)[C@@H](OC(C)=O)[C@@H]2C1(C)C(OC(C)=O)C[C@@H](OC(C)=O)C(C)(C)[C@@H]1C[C@H]3OC(C)=O (some centres undefined) | 6.13 µM and 2.61 µg/mL | > 10 µM and 7.22 µg/mL | > 10 µM and 5.94 µg/mL | > 10 µM and 17.1 µg/mL | 1.55 µM and 0.573 µg/mL | 3.71 µM and 2.86 µg/mL | > 10 µM and 2.46 µg/mL | > 10 µM and 5.65 µg/mL | > 10 µM and 13.1 µg/mL | > 10 µM and 27.7 µg/mL | 362 nM and 1.8 µg/mL | 4.21 µM and 5.35 µg/mL | > 10 µM and 16.8 µg/mL | > 10 µM and 35.6 µg/mL | 361 nM and 0.239 µg/mL | 1.9 µM and 5.21 µg/mL | 1.77 µg/mL | 3.53 µg/mL | > 10 µM and 13.9 µg/mL | > 10 µM and 30 µg/mL
Cc1cc(I)cc(CN(C)CCN2CCCC2)c1O | 17.3 µM | 35.5 µM | 32.8 µM | 81.3 µM | 8.53 µM | 26.4 µM | 25.6 µM | 63.1 µM | 20.9 µM | 53.8 µM | 20.7 µM | 63.6 µM | 41.2 µM | > 100 µM | 22.3 µM | 86 µM | 17.2 µM | 33.2 µM | 37.9 µM | > 100 µM
O=C(Nc1ccc(F)cc1F)c1cc(Br)ccc1O | 3.53 µM | > 100 µM | 2.99 µM | 10.1 µM | 2.42 µM | > 100 µM | 2.3 µM | 6.74 µM | 2.18 µM | > 100 µM | 2.4 µM | 7.03 µM | 2.23 µM | 9.73 µM | 3.71 µM | 69.3 µM | 1.23 µM | 3.82 µM | 3.26 µM | > 100 µM
COC(=O)C(C)N(C)C(=O)[C@H](CC(N)=O)N(C)C(=O)[C@@H]1CCCN1C(=O)[C@H](C(C)C)N(C)C(=O)C(C(C)C)N(C)C(=O)[C@@H](NC(=O)OC(C)(C)C)C(C)C (some centres undefined) (Boc-V[ξNMeV][NMeV]P[NMeN][ξNMeA]-OMe) | > 100 µM | > 100 µM | – | > 100 µM | > 100 µM | 50 µM and > 100 µM | > 100 µM | > 100 µM | > 100 µM | > 100 µM | 32.6 µM | > 50 µM and 96.8 µM | 16.9 µM | > 50 µM and 35.3 µM | 65.7 µM | > 100 µM | > 100 µM | > 100 µM | > 100 µM | 50 µM and > 100 µM
CCCCc1ccc(-n2c3nc(=O)n(C)c(=O)c-3nc3ccccc32)cc1 | – | 11.8 µM | – | 26.6 µM | – | 33.6 µM | – | 24 µM | – | 33.7 µM | – | 34.1 µM | – | 15.5 µM | – | 41.6 µM | – | 4 µM | – | 22 µM
C1CCN(C2OC3C(COC3N3CCCCC3)OC2OC2CCO[C@@H]2N2CCCCC2)CC1 (some centres undefined) | – | > 100 µM | – | > 100 µM | – | > 100 µM | – | > 100 µM | – | > 100 µM | – | 27.5 µM | – | > 100 µM | – | 40.4 µM | – | 41.8 µM | – | > 100 µM
Cc1occc1C(=S)Nc1ccc(Cl)c(/C=N/OC(C)C)c1 | – | 45 µM | – | 53.6 µM | – | > 100 µM | – | 43.8 µM | – | > 57.2 µM | – | 56.4 µM | – | 59 µM | – | 44.4 µM | – | 29.2 µM | – | 54.2 µM
O=C(CC12CC3CC(CC(C3)C1)C2)NCCOCCOCCOCCNC(=O)c1cc2c(o1)C(=O)c1ccccc1C2=O | 2.46 µM | 6.36 µM | 2.87 µM | 10.3 µM | 1.32 µM | 5.32 µM | 1.64 µM | 3.93 µM | 1.66 µM | 4.6 µM | 1.55 µM | 2.95 µM | 2.23 µM | 5.29 µM | 2.72 µM | 20.7 µM | 0.343 µM | 1.19 µM | 0.331 µM | 1.18 µM
CCN(CC)CCNC(=O)c1nn(C)c(=S)[nH]c1=S | – | > 100 µM | – | > 100 µM | – | > 100 µM | – | > 100 µM | – | > 100 µM | – | > 100 µM | – | > 100 µM | – | > 100 µM | – | > 100 µM | – | > 100 µM
COc1ccc(C(=O)OC2C=COC(C)C2OC(=O)c2ccc(OC)cc2)cc1 (centres undefined) | – | 62.4 µM | – | 40.2 µM | – | 63.9 µM | – | 43.2 µM | – | > 83.6 µM | – | 20.9 µM | – | > 100 µM | – | 52.4 µM | – | 37.7 µM | – | > 100 µM
Cc1cc2cc3c(C)cc(=O)oc3c(C)c2o1 | – | > 100 µM | – | > 100 µM | – | > 100 µM | – | > 100 µM | – | > 100 µM | – | > 100 µM | – | > 100 µM | – | > 100 µM | – | > 100 µM | – | > 100 µM
CC1(C)CC(n2cnc(-c3ccc(F)cc3)c2-c2ccnc(N)n2)CC(C)(C)N1 | 11.1 µM | > 25 µM | 18.1 µM | > 25 µM | > 24.1 µM | > 25 µM | > 25 µM | > 25 µM | 24.7 µM | > 25 µM | > 24.1 µM | > 25 µM | > 25 µM | > 25 µM | > 25 µM | > 25 µM | > 25 µM | > 25 µM | 12.5 µM | > 25 µM
c1ccc2c(c1)-c1ccccc1C2N1CC2CCC(CC2)C1 | – | 37.6 µM | – | 39.9 µM | – | 36.6 µM | – | 30.7 µM | – | 69.8 µM | – | 33.7 µM | – | 51 µM | – | 35.8 µM | – | 44.5 µM | – | > 100 µM
O=c1[nH]c2c3ccccc3ccc2c2cc3c(cc12)OCO3 | – | > 100 µM | – | > 100 µM | – | > 100 µM | – | > 100 µM | – | > 100 µM | – | > 100 µM | – | > 100 µM | – | > 100 µM | – | > 100 µM | – | > 100 µM
O=C(Nc1ccc(F)cc1)C(=O)C(C1OC(=O)c2ccccc21)[N+](=O)[O-] (centres undefined) | – | > 100 µM | – | > 100 µM | – | > 100 µM | – | > 100 µM | – | > 100 µM | – | > 100 µM | – | > 100 µM | – | > 100 µM | – | > 100 µM | – | > 100 µM
COc1cccc(-c2nc3sccn3c2-c2ccnc(NCCNS(=O)(=O)c3ccccc3)c2)c1 | 2.37 µM | 34.3 µM | 3.13 µM | 25 µM | 1.46 µM | > 100 µM | 1.96 µM | 5.96 µM | 2.2 µM | > 100 µM | 2.11 µM | > 100 µM | 3.13 µM | > 100 µM | 1.88 µM | > 100 µM | 1.29 µM | 3.49 µM | 2.68 µM | > 100 µM
